From PubChem BioAssay (NCI)
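Method: 48-hour compound exposure of cells in 96-well plates, five concentrations, linear interpolation of endpoints. The concentration for 50% growth inhibition is given as GI50. TGI marks complete inhibition of growth.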

Columns and labels:
Assay in all cases: NCI anticancer screen, dose series, 48 h
[1] = test system: UO-31 renal
[2] = test system: SK-MEL-2 melanoma
[3] = test system: CAKI-1 renal
[4] = test system: SR leukemia
[5] = test system: CCRF-CEM leukemia
[6] = test system: MDA-MB-435
[7] = test system: SNB-75 CNS
[8] = test system: PC-3 prostate
[9] = test system: HCC-2998 colon
[10] = test system: SF-295 CNS
[11] = test system: SW-620 colon
[12] = test system: UACC-62 melanoma
[13] = test system: NCI-H522 lung
[14] = test system: OVCAR-4 ovarian
[15] = test system: SF-539 CNS
[16] = test system: IGROV1 ovarian
[17] = test system: TK-10 renal
[18] = test system: ACHN renal
[19] = test system: 786-0 renal
[20] = test system: NCI-H226 lung
[21] = test system: HCT-116 colon
[22] = test system: MALME-3M melanoma
[23] = test system: HOP-62 NSCLC
[24] = test system: NCI/ADR-RES ovarian
[25] = test system: A549 NSCLC
[26] = test system: SK-OV-3 ovarian
[27] = test system: DU-145 prostate
[28] = test system: M14 melanoma
[29] = test system: U251 CNS
[30] = test system: LOX IMVI melanoma
[31] = test system: A498 renal
[32] = test system: SF-268 CNS
[33] = test system: OVCAR-8 ovarian
[34] = test system: KM12 colon
[35] = test system: MCF7 breast
[36] = test system: T-47D breast
[37] = test system: UACC-257 melanoma
[38] = test system: SN12C renal
[39] = test system: OVCAR-5 ovarian
[40] = test system: OVCAR-3 ovarian
[41] = test system: SK-MEL-28 melanoma
[42] = test system: MDA-MB-468 breast
[43] = test system: SK-MEL-5 melanoma
[44] = test system: BT-549 breast
[45] = test system: EKVX NSCLC
[46] = test system: MOLT-4 leukemia
[47] = test system: HS 578T breast
[48] = test system: HOP-92 NSCLC
[49] = test system: COLO 205 colon
[50] = test system: HCT-15 colon
[51] = test system: HT29 colon
[52] = test system: HL-60(TB) leukemia
[53] = test system: SNB-19 CNS
[54] = test system: MDA-MB-231 breast
[55] = test system: NCI-H460 lung
[56] = test system: RPMI-8226 leukemia
[57] = test system: K-562 leukemia
[58] = test system: NCI-H23 lung
[59] = test system: RXF 393 renal

## O=C(c1ccc(Cl)cc1)C1[C@H](c2ccccc2Cl)[C@@H](c2ccccc2)NC12C(=O)Nc1ccccc12 (stereo partly specified)
[1]
  GI50: 16.4 µM
  TGI: > 100 µM
[2]
  GI50: 14.8 µM
  TGI: 32.1 µM
[3]
  GI50: 18.9 µM
  TGI: > 100 µM
[4]
  GI50: 14.7 µM
  TGI: 53.5 µM
[5]
  GI50: 27.2 µM
  TGI: 95 µM
[6]
  GI50: 12.7 µM
  TGI: 28.8 µM
[7]
  GI50: 11 µM
  TGI: 71.3 µM
[8]
  GI50: 14.3 µM
  TGI: 72.9 µM
[9]
  GI50: 19.1 µM
  TGI: 51.7 µM
[10]
  GI50: 18.2 µM
  TGI: 49.7 µM
[11]
  GI50: 17.6 µM
  TGI: 51.2 µM
[12]
  GI50: 12.6 µM
  TGI: 27.8 µM
[13]
  GI50: 15.2 µM
  TGI: 46.3 µM
[14]
  GI50: 25.6 µM
  TGI: > 100 µM
[15]
  GI50: 18.1 µM
  TGI: 36 µM
[16]
  GI50: 26.1 µM
  TGI: > 100 µM
[17]
  GI50: 23.4 µM
  TGI: 87.9 µM
[18]
  GI50: 20.9 µM
  TGI: 71.8 µM
[19]
  GI50: 20.5 µM
  TGI: 51.6 µM
[20]
  GI50: 17.6 µM
  TGI: 47.4 µM
[21]
  GI50: 14.5 µM
  TGI: 29.6 µM
[22]
  GI50: 15.7 µM
  TGI: 34.8 µM
[23]
  GI50: 17.4 µM
  TGI: 61.8 µM
[24]
  GI50: 14.9 µM
  TGI: 35.8 µM
[25]
  GI50: 24.9 µM
  TGI: > 100 µM
[26]
  GI50: 20.8 µM
  TGI: 82.7 µM
[27]
  GI50: 17.1 µM
  TGI: 51.2 µM
[28]
  GI50: 16.3 µM
  TGI: 43.1 µM
[29]
  GI50: 23 µM
  TGI: 64.8 µM
[30]
  GI50: 13.2 µM
  TGI: 27.3 µM
[31]
  GI50: 20.8 µM
  TGI: 60.1 µM
[32]
  GI50: 23.2 µM
  TGI: > 100 µM
[33]
  GI50: 22 µM
  TGI: 72.3 µM
[34]
  GI50: 20.2 µM
  TGI: 58.1 µM
[35]
  GI50: 16.2 µM
  TGI: 58.4 µM
[36]
  GI50: 18.3 µM
  TGI: 74.1 µM
[37]
  GI50: 23.3 µM
  TGI: 79 µM
[38]
  GI50: 13.7 µM
  TGI: 28.4 µM
[39]
  GI50: 18.5 µM
  TGI: 66.7 µM
[40]
  GI50: 12.5 µM
  TGI: 35 µM
[41]
  GI50: 18.2 µM
  TGI: 40.3 µM
[42]
  GI50: 3.54 µM
  TGI: 20.6 µM
[43]
  GI50: 15.2 µM
  TGI: 29.3 µM
[44]
  GI50: 16.2 µM
  TGI: 48.5 µM
[45]
  GI50: 23.7 µM
  TGI: > 100 µM
[46]
  GI50: 20.3 µM
  TGI: 74.9 µM
[47]
  GI50: 12 µM
  TGI: 34.6 µM
[48]
  GI50: 17.7 µM
  TGI: 58.4 µM
[49]
  GI50: 16.3 µM
  TGI: 29.9 µM
[50]
  GI50: 25.3 µM
  TGI: > 100 µM
[51]
  GI50: 14.6 µM
  TGI: 35 µM
[52]
  GI50: 17 µM
  TGI: 58.8 µM
[53]
  GI50: 30 µM
  TGI: > 100 µM
[54]
  GI50: 15 µM
  TGI: 40.8 µM
[55]
  GI50: 17.8 µM
  TGI: 36.8 µM
[56]
  GI50: 25.7 µM
  TGI: 91.3 µM
[57]
  GI50: 21.7 µM
  TGI: > 100 µM
[58]
  GI50: 18.3 µM
  TGI: 52 µM
[59]
  GI50: 13.2 µM
  TGI: 34.3 µM

## Cc1ccc(/C=C/C(=O)c2ccc(S(=O)(=O)NCCNc3nc(Nc4ccc(F)cc4)nc(N(C)C)n3)cc2)cc1
[1]
  GI50: 6.77 µM
  TGI: 19.8 µM
[2]
  GI50: 11.2 µM
  TGI: 24.2 µM
[3]
  GI50: 6.98 µM
  TGI: 22.6 µM
[4]
  GI50: 2.76 µM
  TGI: 11.2 µM
[5]
  GI50: 5.28 µM
  TGI: > 100 µM
[6]
  GI50: 6.03 µM
  TGI: 21.6 µM
[7]
  GI50: 7.59 µM
  TGI: 45 µM
[8]
  GI50: 3.54 µM
  TGI: 18.2 µM
[9]
  GI50: 4.5 µM
  TGI: 15.8 µM
[10]
  GI50: 11.5 µM
  TGI: 23.8 µM
[11]
  GI50: 7.53 µM
  TGI: 20.9 µM
[12]
  GI50: 8.4 µM
  TGI: 21.1 µM
[13]
  GI50: 5.24 µM
  TGI: 18.1 µM
[14]
  GI50: 7.79 µM
  TGI: 33.8 µM
[15]
  GI50: 13 µM
  TGI: 25.9 µM
[16]
  GI50: 15.1 µM
  TGI: 31 µM
[17]
  GI50: 15.2 µM
  TGI: 30.7 µM
[18]
  GI50: 6.31 µM
  TGI: 18.9 µM
[19]
  GI50: 10.5 µM
  TGI: 23.1 µM
[20]
  GI50: 10.4 µM
  TGI: 25.8 µM
[21]
  GI50: 1.75 µM
  TGI: 3.28 µM
[22]
  GI50: 16.4 µM
  TGI: 31.6 µM
[23]
  GI50: 15.3 µM
  TGI: 31.4 µM
[24]
  GI50: 8.39 µM
  TGI: 21.1 µM
[25]
  GI50: 10.5 µM
  TGI: 28.6 µM
[26]
  GI50: 17 µM
  TGI: 45.9 µM
[27]
  GI50: 14 µM
  TGI: 32.4 µM
[28]
  GI50: 5.91 µM
  TGI: 19.7 µM
[29]
  GI50: 11.6 µM
  TGI: 26 µM
[30]
  GI50: 4.12 µM
  TGI: 15.3 µM
[31]
  GI50: 12.6 µM
  TGI: 25.5 µM
[32]
  GI50: 8.76 µM
  TGI: 29.2 µM
[33]
  GI50: 13 µM
  TGI: 27 µM
[34]
  GI50: 5.41 µM
  TGI: 24.5 µM
[35]
  GI50: 2.01 µM
  TGI: 5.8 µM
[36]
  GI50: 3.86 µM
  TGI: 17.8 µM
[37]
  GI50: 17.4 µM
  TGI: 33.1 µM
[38]
  GI50: 11.2 µM
  TGI: 23.4 µM
[39]
  GI50: 14.9 µM
  TGI: 28.2 µM
[40]
  GI50: 11.3 µM
  TGI: 24.8 µM
[41]
  GI50: 11.3 µM
  TGI: 23.7 µM
[42]
  GI50: 4.66 µM
  TGI: 17 µM
[43]
  GI50: 8.25 µM
  TGI: 20.7 µM
[44]
  GI50: 15.7 µM
  TGI: 30.1 µM
[45]
  GI50: 4.96 µM
  TGI: 16.9 µM
[46]
  GI50: 3.86 µM
  TGI: 48.6 µM
[47]
  GI50: 10.7 µM
  TGI: 47.4 µM
[48]
  GI50: 7.63 µM
  TGI: 22.2 µM
[49]
  GI50: 6.51 µM
  TGI: 20.9 µM
[50]
  GI50: 3.92 µM
  TGI: 10.9 µM
[51]
  GI50: 2.38 µM
  TGI: 5.25 µM
[52]
  GI50: 5.58 µM
  TGI: 32.1 µM
[53]
  GI50: 11 µM
  TGI: 23.6 µM
[54]
  GI50: 6.56 µM
  TGI: 20 µM
[55]
  GI50: 4.22 µM
  TGI: 15.8 µM
[56]
  GI50: 2.73 µM
  TGI: 8.28 µM
[57]
  GI50: 3.89 µM
  TGI: 25.3 µM
[58]
  GI50: 11.3 µM
  TGI: 23.8 µM
[59]
  GI50: 4.98 µM
  TGI: 18.2 µM
